Test results taken from patent US9255101B2 (BIOPROJECT, priority 2012, dated 2016).
Structures can show the parent of a compound that is named as a salt.

molecular target: human H4 receptor (Homo sapiens, UniProt Q9H3N8); assay: biochemical
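Note: radioligand displacement of a [3H]-labelled ligand from membranes of CHO cells stably expressing human H4 receptor, bound radioactivity counted on filters by liquid scintillation.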

SMILES	Ki [µM]
C=Cc1cn2c(n1)C(OC1CCN(C)CC1)c1ccccc1CC2 (centres unmarked) [Example 9, 4-(1-methylpiperidin-4-yloxy)-2-vinyl-9,10-dihydro-4H-3,10a-diaza-benzo[f]azulene oxalate]	< 1
CN1CCC(OC2c3ccccc3CCn3cc(-c4ccc(CO)cc4)nc32)CC1 (centres unmarked) [Example 18, {4-[4-(1-methylpiperidin-4-yloxy)-9,10-dihydro-4H-3,10a-diaza-benzo[f]azulen-2-yl]-phenyl}-methanol]	< 1
CN1CCC(OC2c3ccccc3CCn3cc(-c4ccccn4)nc32)CC1 (centres unmarked) [Example 23, 4-(1-methylpiperidin-4-yloxy)-2-pyridin-2-yl-9,10-dihydro-4H-3,10a-diaza-benzo[f]azulene]	< 1
CN1CCC(OC2c3ccccc3CCn3cc(-c4ccc(N(C)C)cc4)nc32)CC1 (centres unmarked) [Example 35, dimethyl-{4-[4-(1-methylpiperidin-4-yloxy)-9,10-dihydro-4H-3,10a-diaza-benzo[f]azulen-2-yl]-phenyl}-amine oxalate]	< 1
Cc1ccc(-c2cn3c(n2)C(OC2CCN(C)CC2)c2ccccc2CC3)cn1 (centres unmarked) [Example 39, 4-(1-methylpiperidin-4-yloxy)-2-(6-methylpyridin-3-yl)-9,10-dihydro-4H-3,10a-diaza-benzo[f]azulene oxalate]	< 1
CN1CCC(OC2c3ccccc3CCn3cc(-c4ncco4)nc32)CC1 (centres unmarked) [Example 40, 4-(1-methylpiperidin-4-yloxy)-2-oxazol-2-yl-9,10-dihydro-4H-3,10a-diaza-benzo[f]azulene oxalate]	< 1
CN1CCC(OC2c3ccccc3CCn3cc(-c4ccncc4)nc32)CC1 (centres unmarked) [Example 44, 4-(1-methylpiperidin-4-yloxy)-2-pyridin-4-yl-9,10-dihydro-4H-3,10a-diaza-benzo[f]azulene oxalate]	< 1
CN1CCC(OC2c3ccccc3CCn3cc(-c4cccnc4)nc32)CC1 (centres unmarked) [Example 45, 4-(1-methylpiperidin-4-yloxy)-2-pyridin-3-yl-9,10-dihydro-4H-3,10a-diaza-benzo[f]azulene oxalate]	< 1
CN1CCC(OC2c3ccccc3CCn3cc(-c4cncs4)nc32)CC1 (centres unmarked) [Example 48, 4-(1-methylpiperidin-4-yloxy)-2-thiazol-5-yl-9,10-dihydro-4H-3,10a-diaza-benzo[f]azulene oxalate]	< 1
CN1CCC(OC2c3ccccc3CCn3cc(C=CC(=O)OC(C)(C)C)nc32)CC1 (centres unmarked) [Example 53, 3-[4-(1-methylpiperidin-4-yloxy)-9,10-dihydro-4H-3,10a-diaza-benzo[f]azulen-2-yl]-acrylic acid tert-butyl ester oxalate]	< 1
CN1CCC(OC2c3ccccc3CCn3cc(-c4cccn4C)nc32)CC1 (centres unmarked) [Example 83, 4-(1-methylpiperidin-4-yloxy)-2-(1-methyl-1H-pyrrol-2-yl)-9,10-dihydro-4H-3,10a-diaza-benzo[f]azulene]	< 1
CN1CCC(OC2c3cccc(-c4ccccc4)c3CCn3cc(-c4ccccc4)nc32)CC1 (centres unmarked) [Example 92, 4-(1-methylpiperidin-4-yloxy)-2,8-diphenyl-9,10-dihydro-4H-3,10a-diaza-benzo[f]azulene]	< 0.3
CN1CCC(OC2c3ccccc3CCn3cc(SC4CCCCC4)nc32)CC1 (centres unmarked) [Example 98, 2-cyclohexylsulfanyl-4-(1-methylpiperidin-4-yloxy)-9,10-dihydro-4H-3,10a-diaza-benzo[f]azulene oxalate]	< 0.3
CNc1ccc(-c2cn3c(n2)C(OC2CCN(C)CC2)c2ccccc2CC3)cc1 (centres unmarked) [Example 100, methyl-{4-[4-(1-methylpiperidin-4-yloxy)-9,10-dihydro-4H-3,10a-diaza-benzo[f]azulen-2-yl]-phenyl}-amine oxalate]	< 1
CN1CCC(OC2c3ccccc3CCn3cc(-c4ccc(N(C)C(=O)C(C)(C)C)cc4)nc32)CC1 (centres unmarked) [Example 101, 2,2,N-trimethyl-N-{4-[4-(1-methylpiperidin-4-yloxy)-9,10-dihydro-4H-3,10a-diaza-benzo[f]azulen-2-yl]-phenyl}-propionamide oxalate]	< 0.3
CN1CCC(OC2c3ccccc3CCn3cc(C4=CCOCC4)nc32)CC1 (centres unmarked) [Example 106, 2-(3,6-dihydro-2H-pyran-4-yl)-4-(1-methyldpiperidin-4-yloxy)-9,10-dihydro-4H-3,10a-diaza-benzo[f]azulene]	< 1

Second part, the compound after the results:

Ki [µM]	SMILES
< 0.3	Cc1ccccc1-c1cn2c(n1)C(OC1CCN(C)CC1)c1ccccc1CC2 (centres unmarked) [Example 8, 4-(1-methyl-piperidin-4-yloxy)-2-o-tolyl-9,10-dihydro-4H-3,10a-diaza-benzo[f]azulene]
< 0.3	CCc1cn2c(n1)C(OC1CCN(C)CC1)c1ccccc1CC2 (centres unmarked) [Example 13, 2-ethyl-4-(1-methylpiperidin-4-yloxy)-9,10-dihydro-4H-3,10a-diaza-benzo[f]azulene oxalate]
< 0.3	CN1CCC(OC2c3ccccc3CCn3cc(-c4ccc(S(C)(=O)=O)cc4)nc32)CC1 (centres unmarked) [Example 17, 2-(4-methanesulfonylphenyl)-4-(1-methylpiperidin-4-yloxy)-9,10-dihydro-4H-3,10a-diaza-benzo[f]azulene]
< 0.3	COCc1ccc(-c2cn3c(n2)C(OC2CCN(C)CC2)c2ccccc2CC3)cc1 (centres unmarked) [Example 19, 2-(4-methoxymethylphenyl)-4-(1-methylpiperidin-4-yloxy)-9,10-dihydro-4H-3,10a-diaza-benzo[f]azulene oxalate]
< 0.3	CN1CCC(OC2c3ccccc3CCn3cc(-c4ccco4)nc32)CC1 (centres unmarked) [Example 24, 2-furan-2-yl-4-(1-methylpiperidin-4-yloxy)-9,10-dihydro-4H-3,10a-diaza-benzo[f]azulene]
< 0.03	CC(C)Cc1ccc(-c2cn3c(n2)C(OC2CCN(C)CC2)c2ccccc2CC3)cc1 (centres unmarked) [Example 28, 2-(4-isobutylphenyl)-4-(1-methylpiperidin-4-yloxy)-9,10-dihydro-4H-3,10a-diaza-benzo[f]azulene]
< 0.3	Cc1ccc(-c2cn3c(n2)C(OC2CCN(C)CC2)c2ccccc2CC3)o1 (centres unmarked) [Example 51, 2-(5-methylfuran-2-yl)-4-(1-methylpiperidin-4-yloxy)-9,10-dihydro-4H-3,10a-diaza-benzo[f]azulene oxalate]
< 0.03	CN1CCC(OC2c3ccccc3CCn3cc(-c4ccc(Cl)cc4)nc32)CC1 (centres unmarked) [Example 52, 2-(4-chloro-phenyl)-4-(1-methylpiperidin-4-yloxy)-9,10-dihydro-4H-3,10a-diaza-benzo[f]azulene oxalate]
< 0.3	Cc1cc(C(F)(F)F)ccc1-c1cn2c(n1)C(OC1CCN(C)CC1)c1ccccc1CC2 (centres unmarked) [Example 55, 4-(1-methylpiperidin-4-yloxy)-2-(2-methyl-4-trifluoromethyl-phenyl)-9,10-dihydro-4H-3,10a-diaza-benzo[f]azulene]
< 0.3	CN1CCC(OC2c3ccccc3CCn3cc(C4=CCSCC4)nc32)CC1 (centres unmarked) [Example 57, 2-(3,6-dihydro-2H-thiopyran-4-yl)-4-(1-methylpiperidin-4-yloxy)-9,10-dihydro-4H-3,10a-diaza-benzo[f]azulene]
< 0.3	CN1CCC(OC2c3ccccc3CCn3cc(C=CC4CCCCC4)nc32)CC1 (centres unmarked) [Example 59, 2-(2-cyclohexyl-vinyl)-4-(1-methylpiperidin-4-yloxy)-9,10-dihydro-4H-3,10a-diaza-benzo[f]azulene]
< 0.3	Cc1ccc(-c2cn3c(n2)C(OC2CCN(C)CC2)c2ccccc2CC3)c(C)c1 (centres unmarked) [Example 61, 2-(2,4-dimethylphenyl)-4-(1-methylpiperidin-4-yloxy)-9,10-dihydro-4H-3,10a-diaza-benzo[f]azulene]
< 0.3	CN1CCC(OC2c3ccccc3CCn3cc(-c4nccs4)nc32)CC1 (centres unmarked) [Example 66, 4-(1-methylpiperidin-4-yloxy)-2-thiazol-2-yl-9,10-dihydro-4H-3,10a-diaza-benzo[f]azulene oxalate]
< 0.03	CN1CCC(OC2c3ccccc3CCn3cc(-c4ccc(Cl)cc4Cl)nc32)CC1 (centres unmarked) [Example 71, 2-(2,4-dichlorophenyl)-4-(1-methylpiperidin-4-yloxy)-9,10-dihydro-4H-3,10a-diaza-benzo[f]azulene oxalate]
< 0.3	CN1CCC(OC2c3ccccc3CCn3cc(Sc4ccccc4)nc32)CC1 (centres unmarked) [Example 73, 4-(1-methylpiperidin-4-yloxy)-2-phenylsulfanyl-9,10-dihydro-4H-3,10a-diaza-benzo[f]azulene oxalate]
< 0.3	CN1CCC(OC2c3cccc(Cl)c3CCn3cc(I)nc32)CC1 (centres unmarked) [Example 78, 8-chloro-2-iodo-4-(1-methylpiperidin-4-yloxy)-9,10-dihydro-4H-3,10a-diaza-benzo[f]azulene]
< 0.3	CN1CCC(OC2c3ccccc3CCn3cc(SCCNC(=O)OC(C)(C)C)nc32)CC1 (centres unmarked) [Example 84, {2-[4-(1-methylpiperidin-4-yloxy)-9,10-dihydro-4H-3,10a-diaza-benzo[f]azulen-2-ylsulfanyl]-ethyl}-carbamic acid tert-butyl ester oxalate]
< 0.3	CN1CCC(OC2c3ccccc3CCn3cc(SCc4ccco4)nc32)CC1 (centres unmarked) [Example 85, 2-(furan-2-ylmethylsulfanyl)-4-(1-methylpiperidin-4-yloxy)-9,10-dihydro-4H-3,10a-diaza-benzo[f]azulene oxalate]
< 0.03	CN1CCC(OC2c3ccccc3CCn3cc(C=CCCCc4ccccc4)nc32)CC1 (centres unmarked) [Example 89, 4-(1-methylpiperidin-4-yloxy)-2-(5-phenylpent-1-enyl)-9,10-dihydro-4H-3,10a-diaza-benzo[f]azulene]
< 0.3	CN1CCC(OC2c3cccc(Cl)c3CCn3cc(-c4ccccc4)nc32)CC1 (centres unmarked) [Example 91, 8-chloro-4-(1-methylpiperidin-4-yloxy)-2-phenyl-9,10-dihydro-4H-3,10a-diaza-benzo[f]azulene]
< 0.03	CN1CCC(OC2c3ccccc3CCn3cc(CCC4CCCCC4)nc32)CC1 (centres unmarked) [Example 95, 2-(2-cyclohexylethyl)-4-(1-methylpiperidin-4-yloxy)-9,10-dihydro-4H-3,10a-diaza-benzo[f]azulene oxalate]
< 0.03	CN1CCC(OC2c3ccccc3CCn3cc(C=CCC4CCCC4)nc32)CC1 (centres unmarked) [Example 104, 2-(3-cyclopentylpropenyl)-4-(1-methylpiperidin-4-yloxy)-9,10-dihydro-4H-3,10a-diaza-benzo[f]azulene]
